Laboratory results reported in ChEMBL document CHEMBL5316290, “Targeted Protein Degradation Induced by HEMTACs Based on HSP90” (J Med Chem, 2023).
pEC50, pIC50: −log10 of the molar value. Calls of active or inactive are those of the source. The calls are words filed in the database; no cut-off is given here.

Tests used:
[1] = target: HSP90/Cyclin-dependent kinase 6 (Mus musculus, UniProt P07901+P11499+Q64261); test: HEMTAC activity at HSP90/CDK6 in mouse B16-F10 cells assessed as induction of […] degradation incubated for 24 hrs by Western blot analysis; assay type: cell-based
[2] = target: T1, HSP90/Cyclin-dependent kinase 4 (Mus musculus) (UniProt P30285+P07901+P11499); test: HEMTAC activity at HSP90/CDK4 in mouse B16-F10 cells assessed as induction of CDK4 degradation by measuring maximal degradation incubated for 24 hrs by Western blot analysis relative to control; assay type: cell-based
[3] = target: T1, HSP90/Cyclin-dependent kinase 4 (Mus musculus); test: HEMTAC activity at HSP90/CDK4 in mouse B16-F10 cells assessed as induction of CDK4 degradation at 0.5 uM measured after 12 hrs by Western blot analysis; assay type: cell-based
[4] = target: T2, HSP90/Cyclin-dependent kinase 6 (Mus musculus) (UniProt P07901+Q64261+P11499); test: HEMTAC activity at HSP90/CDK6 in mouse B16-F10 cells assessed as induction of […] degradation at 0.5 uM measured after 12 hrs by Western blot analysis; assay type: cell-based
[5] = target: T1, HSP90/Cyclin-dependent kinase 4 (Mus musculus); test: HEMTAC activity at HSP90/CDK4 in mouse B16-F10 cells assessed as induction of CDK4 degradation at 0.5 uM pretreated with proteasome inhibitor, MG132 for 2 hrs followed by compound addition and measured after 24 hrs by Western blot analysis; assay type: cell-based
[6] = target: T2, HSP90/Cyclin-dependent kinase 6 (Mus musculus); test: HEMTAC activity at HSP90/CDK6 in mouse B16-F10 cells assessed as induction of […] degradation at 0.5 uM pretreated with proteasome inhibitor, MG132 for 2 hrs followed by compound addition and measured after 24 hrs by Western blot analysis; assay type: cell-based
B16-F10 [7] = test: Binding affinity to HSP90/CDK6 in mouse B16-F10 assessed as ternary complex formation at 5 uM incubated for 6 hrs by co-immunoprecipitation assay; assay type: cell-based
[8] = target: T2, HSP90/Cyclin-dependent kinase 6 (Mus musculus); test: HEMTAC activity at HSP90/CDK6 in mouse B16-F10 cells assessed as induction of CDK6 degradation at 0.1 uM incubated for 24 hrs in presence of palbociclib by Western blot analysis; assay type: cell-based
A549 = test: Cytotoxicity against human A549 cells assessed as inhibition of cell growth incubated for 72 hrs by CCK-8 assay; assay type: functional, cell-based; conditions: A549, 72 h
[9] = target: T1, HSP90/Cyclin-dependent kinase 4 (Mus musculus); test: HEMTAC activity at HSP90/CDK4 in mouse B16-F10 cells assessed as reduction in CDK4 protein level at 0.5 uM incubated for 24 hrs by global proteomics analysis; assay type: cell-based
[10] = target: T2, HSP90/Cyclin-dependent kinase 6 (Mus musculus); test: HEMTAC activity at HSP90/CDK6 in mouse B16-F10 cells assessed as reduction in CDK6 protein level at 0.5 uM incubated for 24 hrs by global proteomics analysis; assay type: cell-based
B16-F10 [11] = test: Cytotoxicity against mouse B16-F10 cells assessed as inhibition of cell growth incubated for 72 hrs by CCK-8 assay; assay type: functional, cell-based; conditions: B16-F10, 72 h
B16-F10 [12] = test: Induction of apoptosis in mouse B16-F10 cells assessed as live cells at 125 nM incubated for 48 hrs by Annexin V-FITC/PI staining based flow cytometry analysis (reference value: 92.85 %); assay type: functional
A-375 = test: Cytotoxicity against human A-375 cells assessed as inhibition of cell growth incubated for 72 hrs by CCK-8 assay; assay type: functional, cell-based; conditions: A-375, 72 h
HepG2 = test: Cytotoxicity against human HepG2 cells assessed as inhibition of cell growth incubated for 72 hrs by CCK-8 assay; assay type: functional, cell-based; conditions: HepG2, 72 h
MDA-MB-231 = test: Cytotoxicity against human MDA-MB-231 cells assessed as inhibition of cell growth incubated for 72 hrs by CCK-8 assay; assay type: functional, cell-based; conditions: MDA-MB-231, 72 h
B16-F10 [13] = test: Induction of apoptosis in mouse B16-F10 cells assessed as early apoptotic cells at 125 nM incubated for 48 hrs by Annexin V-FITC/PI staining based flow cytometry analysis (reference value: 3.42%); assay type: functional
B16-F10 [14] = test: Induction of apoptosis in mouse B16-F10 cells assessed as late apoptotic cells at 125 nM incubated for 48 hrs by Annexin V-FITC/PI staining based flow cytometry analysis (reference value: 1.97%); assay type: functional
B16-F10 [15] = test: Induction of apoptosis in mouse B16-F10 cells assessed as dead cells at 125 nM incubated for 48 hrs by Annexin V-FITC/PI staining based flow cytometry analysis (reference value: 1.75%); assay type: functional
B16-F10 [16] = test: Induction of apoptosis in mouse B16-F10 cells assessed as late apoptotic cells at 250 nM incubated for 48 hrs by Annexin V-FITC/PI staining based flow cytometry analysis (reference value: 1.97%); assay type: functional
B16-F10 [17] = test: Induction of cell cycle arrest in mouse B16-F10 cells assessed as accumulation of cells at G1 phase at 125 nM incubated for 24 hrs by RNase/PI staining based flow cytometry analysis (reference value: 68.89%); assay type: functional
B16-F10 [18] = test: Induction of cell cycle arrest in mouse B16-F10 cells assessed as accumulation of cells at S phase at 125 nM incubated for 24 hrs by RNase/PI staining based flow cytometry analysis (reference value: 12.45%); assay type: functional
B16-F10 [19] = test: Induction of cell cycle arrest in mouse B16-F10 cells assessed as accumulation of cells at G2 phase at 250 nM incubated for 24 hrs by RNase/PI staining based flow cytometry analysis (reference value: 16.13%); assay type: functional
B16-F10 [20] = test: Induction of cell cycle arrest in mouse B16-F10 cells assessed as accumulation of cells at S phase at 250 nM incubated for 24 hrs by RNase/PI staining based flow cytometry analysis (reference value: 12.45%); assay type: functional
[21] = Acute toxicity in zebra fish embryos incubated for 72 hrs; parameters: species or system Danio rerio; conditions: zebrafish
B16-F10 [22] = test: Anticancer activity against mouse B16-F10 cells xenografted in zebra fish embryos assessed as inhibition of cell growth at 1 uM measured at 6 days post fertilization; assay type: functional, cell-based; conditions: time 6.0 day
B16-F10 [23] = test: Inhibition of colony formation in mouse B16-F10 cells at 0.25 to 1 uM incubated for 7 days with media replacement for every 2 days by crystal violet staining based analysis; assay type: functional, cell-based; conditions: dose 0.25-1 µM, time 7.0 day
B16-F10 [24] = test: Inhibition of cell migration in mouse B16-F10 cells at 0.25 to 1 uM by wound healing assay; assay type: functional, cell-based; conditions: dose 0.25-1 µM
B16-F10 [25] = test: Anticancer activity against mouse B16-F10 cells implanted in C57BL/6J mouse assessed as reduction in CDK4/6 positive cells in tumor at 20 mg/kg, ip administered once daily for 2 weeks and measured every 2 days by immunohistochemical analysis; assay type: functional, organism-based
B16-F10 [26] = test: Anticancer activity against mouse B16-F10 cells implanted in C57BL/6J mouse assessed as increase in necrosis at 20 mg/kg, ip administered once daily for 2 weeks and measured every 2 days by H and E staining based analysis; assay type: functional, organism-based
Lung = test: Downregulation of CDK4/6 protein level in lung of C57BL/6J mouse implanted with mouse B16-F10 cells at 20 mg/kg, ip administered once daily for 2 weeks and measured every 2 days by immunohistochemical analysis; assay type: functional, organism-based
[27] = Toxicity in C57BL/6J mouse implanted with mouse B16-F10 cells assessed as morphological changes in lung at 20 mg/kg, ip administered once daily for 2 weeks and measured every 2 days by H and E staining based analysis; assay type: organism-based; conditions: in vivo, 336 h

## COc1c(C)cnc(Cn2cc(C#CCCn3cc(CNC(=O)CN4CCN(c5ccc(Nc6ncc7c(C)c(C(C)=O)c(=O)n(C8CCCC8)c7n6)nc5)CC4)nn3)c3c(Cl)nc(N)nc32)c1C
[1]
  pEC50: 7.72
[2]
  Emax: 88%
[3]
  Activity: Active
[4]
  Activity: Active
[5]
  Activity: inactive
[6]
  Activity: inactive
B16-F10 [7]
  Activity: Active
[8]
  Activity: inactive
A549
  pIC50: 6.07
[9]
  Activity: Active
[10]
  Activity: Active
B16-F10 [11]
  pIC50: 6.95
B16-F10 [12]
  Activity: 72.27%
A-375
  pIC50: 6.90
HepG2
  pIC50: 6.30
MDA-MB-231
  pIC50: 6.50
B16-F10 [13]
  Activity: 14.42%
B16-F10 [14]
  Activity: 11.55%
B16-F10 [15]
  Activity: 1.77%
B16-F10 [16]
  Activity: 15.1%
B16-F10 [17]
  Activity: 74.01%
B16-F10 [18]
  Activity: 7.58%
B16-F10 [19]
  Activity: 16.12%
B16-F10 [20]
  Activity: 2.08%
[21]
  LC50 at 72 h: > 100000 nM
B16-F10 [22]
  inhibition: Active
B16-F10 [23]
  inhibition: Active
B16-F10 [24]
  inhibition: Active
B16-F10 [25]
  Activity: Active
B16-F10 [26]
  Activity: Active
Lung
  Activity: inactive
[27]
  Activity: Non-Toxic
